One data set has as its system Human DAGL. The data set can be described thus: Human DAGL assay (HaCaT cells). It counts as biochemical. The conditions noted are these: RG7774 10 µM. On the procedure:
(§1) Mouse brain or human HaCaT cells (CLS Cell Lines Service, GmbH, Eppelheim, Germany) were homogenized in 50 mM Tris-HCl (pH 7.4) using a glass potter, and homogenates were centrifuged at 4°C sequentially at 800 g (10 min) and 10,000 g (30 min). The final pellet (80–200 µg) was resuspended in 50 mM Tris-HCl (pH 7.4) containing 10 mM CaCl2 and incubated at 37°C for 30 min with sn-1[^14C]-stearoyl-2-arachidonoyl-glycerol (100 µM) (ARC, MO, USA). Reactions were stopped by adding chloroform/methanol (2:1, v/v), and the organic phase was dried and fractionated by thin-layer chromatography on silica gel, as previously reported. Levels of 1[^14C]-stearoyl acid radioactivity were determined by cutting the appropriate band from the gel and analyzing using a β-scintillation counter. Mouse cells were preincubated for 15 min with RG7774 (10 µM) and added to the incubation medium. Human cells were preincubated for 15 min with 8 different concentrations of RG7774 (0.1-500 µM) and added to the incubation medium. Control experiments were carried out in the presence of the selective DAGL inhibitor, D053 (10 µM).

A further data set has as its target T1, Mouse MAGL (Mus musculus, UniProt O35678).
T1 construct: Mouse brain or human U937 cell extracts (ATCC, Manassas, VI, USA); from tissue; host or cells: mouse brain, 100,000 g supernatant
Nature of the data set: Mouse MAGL assay (brain). The data set is classed as biochemical. The conditions noted are these: RG7774 10 µM; read-out: Mean ± SEM % inhibition of control, Mouse MAGL. As to the method: The final supernatant was incubated with [^3H]-2-OG (10 µM) (ARC, MO, USA) at 37°C for 30 min as previously described, and reactions were stopped with a 2:1 (v/v) mixture of chloroform/methanol. [^3H]-glycerol release in the aqueous phase was measured by scintillation counting. […] Human supernatant (100 µg) was preincubated for 15 min at RT with 8 different concentrations of RG7774 (0.1-500 µM) in the incubation medium.

For the next data set, the system named is Mouse DAGL. The data set can be described thus: Mouse DAGL assay (brain). It counts as biochemical. As to conditions: RG7774 10 µM. As to the method:
as §1

The nature of a further data set: Hepatocyte clearance. The data set is classed as in vitro ADME. As to conditions: read-out: Hepatocyte CL. As to the method:
For animals, hepatocyte suspension cultures were either freshly prepared by liver perfusion or from cryopreserved hepatocyte batches (BioIVT, NY, USA). For humans, commercially-available, pooled (5–20 donors), cryopreserved human hepatocytes from nontransplantable liver tissues were used (BioIVT). Suspension cultures were incubated in Nunc U96 PP-0.5 mL plates (Nunc Natural, 267245) in a Thermo Forma incubator (Fischer Scientific, Wohlen, Switzerland) equipped with Variomag® Teleshake shakers (Sterico, Wangen, Switzerland) to maintain cell dispersion. The cell culture medium was William’s media supplemented with glutamine, antibiotics, insulin, dexamethasone, and 10% FCS. RG7774 (1 μM) were incubated in 96-well plates containing suspension cultures (1 × 10^6 hepatocytes/mL [~1 mg/mL protein concentration]), with each well containing a total volume of 100 μL. Plates were shaken at 900 rpm for up to 2 h in 5% CO2 at 37 °C. Reactions were quenched after 3, 6, 10, 20, 40, 60, and 120 min with 200 μL methanol containing an internal standard. Samples were cooled, centrifuged, and analyzed by LC-MS/MS. Log peak area ratios (test compound peak area/internal standard peak area) or concentrations were plotted against incubation time using a linear fit to the data with emphasis on the initial rate of compound disappearance.

Data set [1] in a line: GSH adduct formation in human liver microsomes. The data set is classed as in vitro ADME. On the procedure:
GSH adduct formation assays were conducted as previously described. Briefly, RG7774 was incubated with human liver microsomes to form reactive metabolites, and glutathione was added as a nucleophile to convert the reactive metabolites into stable conjugates that could be analyzed by MS.
On the technique in general: Liver microsomes are a subcellular fraction often used to study metabolism.

Another data set deals with T2, CYP1A2 (Homo sapiens, UniProt P05177).
T2 construct: pooled human liver microsomes, CYP probe substrate around the reported Km; from tissue; host or cells: pooled human liver microsomes
Nature of the data set: CYP inhibition assay. It counts as in vitro ADME. As to conditions: 1A2, human liver microsomes. As to the method: (§2) CYP assays were conducted as previously described to determine the risk of drug-drug interactions between test compounds and drugs known to be metabolized via different CYPs. […] Conditions were optimized to achieve the linear metabolic rate for the probe substrate reactions. Samples were analyzed by LC-MS/MS. Assays generate two endpoints: IC50 (μM) and percent inhibition at the highest acceptable test concentration (typically 50 μM; lower if highest concentration data are rejected due to insolubility).

Another data set has as its target T3, CYP2C19 (Homo sapiens, UniProt P33261).
T3 construct: pooled human liver microsomes, CYP probe substrate around the reported Km; from tissue; host or cells: pooled human liver microsomes
Nature of the data set: CYP inhibition assay. It counts as in vitro ADME. As to conditions: 2C19, human liver microsomes. On the procedure: as §2

The target in the next data set is T4, CYP2C8 (Homo sapiens, UniProt P10632).
T4 construct: pooled human liver microsomes, CYP probe substrate around the reported Km; from tissue; host or cells: pooled human liver microsomes
Nature of the data set: CYP inhibition assay. The conditions noted are these: 2C8, human liver microsomes. It counts as in vitro ADME. As to the method: as §2

In the next data set the target is T5, CYP2C9 (Homo sapiens, UniProt P11712).
T5 construct: pooled human liver microsomes, CYP probe substrate around the reported Km; from tissue; host or cells: pooled human liver microsomes
The data set can be described thus: CYP inhibition assay. The data set is classed as in vitro ADME. As to conditions: 2C9, human liver microsomes. On the procedure:
as §2

A further data set deals with T6, CYP2D6 (Homo sapiens, UniProt P10635).
T6 construct: pooled human liver microsomes, CYP probe substrate around the reported Km; from tissue; host or cells: pooled human liver microsomes
The data set can be described thus: CYP inhibition assay. The data set is classed as in vitro ADME. As to conditions: 2D6, human liver microsomes. As to the method:
as §2

The target of a further data set is T7, CYP3A4 (Homo sapiens, UniProt P08684).
T7 construct: pooled human liver microsomes, CYP probe substrate around the reported Km; from tissue; host or cells: pooled human liver microsomes
Nature of the data set: CYP inhibition assay. The data set is classed as in vitro ADME. The conditions noted are these: 3A4, human liver microsomes. As to the method: as §2

In a further data set the target is GAL2 (Homo sapiens, UniProt O43603). The data set is classed as binding. An excerpt: Supplement Table1.docx, table 3: Supplementary Table S3. RG7774 binding to non-CB1R/CB2R receptors, ion channels, transporters, and enzymes (CEREP, Celle l’Evescault, France; http://www.cerep.fr). | column: % inhibition of control SB (n = 2)
The next data set has as its target Mouse CB1R (Mus musculus, UniProt P47746). Nature of the data set: Competitive binding assay in mouse brain membranes, [^3H]-CP55940. Also noted: mouse brain membranes expressing endogenous CB1R; from tissue; host or cells: mouse brain membranes. The conditions noted are these: RG7774 10 µM; read-out: Mean ± SEM % inhibition of control, Mouse CB1R (competitive binding assay). On the procedure: Mouse brain was resuspended in 2 mM Tris–EDTA, 320 mM sucrose, 5 mM MgCl2 (pH 7.4), homogenized using a glass potter, and centrifuged 3 times, each at 1000 g for 10 min.

Each structure is given as a SMILES string. Like-named read-outs stand apart in the source and are kept apart here. A value given as a limit tells only on which side of the number the result lay.

GAL2, sequence (O43603 whole entry): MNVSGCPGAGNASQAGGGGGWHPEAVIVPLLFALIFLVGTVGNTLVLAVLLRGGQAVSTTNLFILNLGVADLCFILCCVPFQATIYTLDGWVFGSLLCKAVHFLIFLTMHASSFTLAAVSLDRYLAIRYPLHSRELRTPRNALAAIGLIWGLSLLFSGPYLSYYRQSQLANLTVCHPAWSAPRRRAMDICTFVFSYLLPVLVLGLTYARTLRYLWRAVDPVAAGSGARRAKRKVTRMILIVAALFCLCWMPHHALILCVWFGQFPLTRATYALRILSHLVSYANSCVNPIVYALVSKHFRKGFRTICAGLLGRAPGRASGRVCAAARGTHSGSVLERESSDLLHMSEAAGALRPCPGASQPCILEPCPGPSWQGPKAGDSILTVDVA
T5 sequence (P11712 whole entry): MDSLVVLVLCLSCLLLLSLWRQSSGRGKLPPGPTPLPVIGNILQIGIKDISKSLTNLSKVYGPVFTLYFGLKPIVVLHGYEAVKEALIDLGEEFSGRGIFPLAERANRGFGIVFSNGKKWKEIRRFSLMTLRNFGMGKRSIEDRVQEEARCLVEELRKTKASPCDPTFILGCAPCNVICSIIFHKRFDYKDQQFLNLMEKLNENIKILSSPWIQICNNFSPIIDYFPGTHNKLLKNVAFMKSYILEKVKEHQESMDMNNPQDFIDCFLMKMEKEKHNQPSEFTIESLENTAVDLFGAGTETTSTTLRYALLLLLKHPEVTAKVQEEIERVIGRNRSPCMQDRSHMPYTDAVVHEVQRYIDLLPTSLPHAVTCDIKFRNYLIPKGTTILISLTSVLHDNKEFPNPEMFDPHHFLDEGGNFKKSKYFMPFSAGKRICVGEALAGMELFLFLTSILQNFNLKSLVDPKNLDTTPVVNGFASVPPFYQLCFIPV
T1 sequence (O35678 whole entry): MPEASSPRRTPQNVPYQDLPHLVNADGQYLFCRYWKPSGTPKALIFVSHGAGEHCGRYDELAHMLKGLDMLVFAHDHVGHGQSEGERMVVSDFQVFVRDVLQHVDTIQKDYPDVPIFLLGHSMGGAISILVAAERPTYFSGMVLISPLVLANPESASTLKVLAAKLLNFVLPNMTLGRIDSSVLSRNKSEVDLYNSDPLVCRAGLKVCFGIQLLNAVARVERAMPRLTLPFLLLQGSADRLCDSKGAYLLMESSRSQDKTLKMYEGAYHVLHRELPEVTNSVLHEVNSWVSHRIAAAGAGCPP
T2 sequence (P05177 whole entry): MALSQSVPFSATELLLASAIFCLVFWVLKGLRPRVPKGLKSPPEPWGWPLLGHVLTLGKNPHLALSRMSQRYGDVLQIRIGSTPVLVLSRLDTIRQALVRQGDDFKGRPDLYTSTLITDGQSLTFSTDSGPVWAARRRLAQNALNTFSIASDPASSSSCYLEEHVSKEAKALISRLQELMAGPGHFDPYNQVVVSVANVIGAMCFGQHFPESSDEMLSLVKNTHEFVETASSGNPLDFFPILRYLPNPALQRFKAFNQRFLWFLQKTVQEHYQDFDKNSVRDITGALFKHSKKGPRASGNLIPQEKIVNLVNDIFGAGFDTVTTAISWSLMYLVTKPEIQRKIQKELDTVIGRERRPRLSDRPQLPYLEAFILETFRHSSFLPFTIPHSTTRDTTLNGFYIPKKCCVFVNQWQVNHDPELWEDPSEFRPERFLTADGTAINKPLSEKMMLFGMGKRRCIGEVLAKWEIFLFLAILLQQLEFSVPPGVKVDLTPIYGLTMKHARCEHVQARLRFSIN
T4 sequence (P10632 whole entry): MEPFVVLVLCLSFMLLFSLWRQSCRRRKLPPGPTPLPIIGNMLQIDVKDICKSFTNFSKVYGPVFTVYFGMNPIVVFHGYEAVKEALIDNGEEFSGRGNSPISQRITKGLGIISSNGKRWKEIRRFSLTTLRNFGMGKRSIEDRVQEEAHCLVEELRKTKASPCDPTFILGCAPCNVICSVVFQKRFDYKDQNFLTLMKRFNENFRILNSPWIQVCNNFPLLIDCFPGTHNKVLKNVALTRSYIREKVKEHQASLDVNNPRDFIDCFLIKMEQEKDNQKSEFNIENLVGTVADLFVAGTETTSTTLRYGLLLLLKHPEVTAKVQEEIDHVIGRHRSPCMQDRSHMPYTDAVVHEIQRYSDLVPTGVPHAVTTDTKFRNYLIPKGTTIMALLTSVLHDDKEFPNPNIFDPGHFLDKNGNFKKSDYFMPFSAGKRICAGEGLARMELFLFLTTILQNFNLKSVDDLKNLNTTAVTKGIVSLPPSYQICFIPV
Mouse CB1R, sequence (P47746 whole entry): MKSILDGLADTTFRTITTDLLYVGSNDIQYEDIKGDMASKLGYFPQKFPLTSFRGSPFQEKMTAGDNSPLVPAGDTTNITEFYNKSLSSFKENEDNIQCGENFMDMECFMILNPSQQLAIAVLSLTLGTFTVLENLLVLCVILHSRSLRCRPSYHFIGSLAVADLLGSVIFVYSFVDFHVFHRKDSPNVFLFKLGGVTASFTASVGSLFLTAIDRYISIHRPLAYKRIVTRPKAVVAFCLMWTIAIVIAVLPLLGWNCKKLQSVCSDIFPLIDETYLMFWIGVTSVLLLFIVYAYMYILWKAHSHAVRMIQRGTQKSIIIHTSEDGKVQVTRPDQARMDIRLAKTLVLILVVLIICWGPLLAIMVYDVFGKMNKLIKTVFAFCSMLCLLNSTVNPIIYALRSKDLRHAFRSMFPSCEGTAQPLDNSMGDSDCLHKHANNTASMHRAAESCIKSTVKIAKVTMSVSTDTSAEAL
T6 sequence (P10635 whole entry): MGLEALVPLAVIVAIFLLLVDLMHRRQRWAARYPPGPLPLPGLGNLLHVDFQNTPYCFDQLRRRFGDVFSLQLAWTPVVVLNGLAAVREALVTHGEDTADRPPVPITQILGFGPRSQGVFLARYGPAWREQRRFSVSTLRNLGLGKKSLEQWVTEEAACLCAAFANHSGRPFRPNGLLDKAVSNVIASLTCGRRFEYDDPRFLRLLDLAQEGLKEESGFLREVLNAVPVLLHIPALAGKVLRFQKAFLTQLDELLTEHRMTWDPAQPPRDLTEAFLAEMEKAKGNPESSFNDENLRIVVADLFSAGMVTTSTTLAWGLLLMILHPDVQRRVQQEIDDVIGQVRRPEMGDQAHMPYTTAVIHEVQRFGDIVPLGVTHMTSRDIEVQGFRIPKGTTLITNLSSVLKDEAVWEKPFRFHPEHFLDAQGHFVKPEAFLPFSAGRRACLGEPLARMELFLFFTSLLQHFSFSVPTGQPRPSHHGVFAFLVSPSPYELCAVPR
T3 sequence (P33261 whole entry): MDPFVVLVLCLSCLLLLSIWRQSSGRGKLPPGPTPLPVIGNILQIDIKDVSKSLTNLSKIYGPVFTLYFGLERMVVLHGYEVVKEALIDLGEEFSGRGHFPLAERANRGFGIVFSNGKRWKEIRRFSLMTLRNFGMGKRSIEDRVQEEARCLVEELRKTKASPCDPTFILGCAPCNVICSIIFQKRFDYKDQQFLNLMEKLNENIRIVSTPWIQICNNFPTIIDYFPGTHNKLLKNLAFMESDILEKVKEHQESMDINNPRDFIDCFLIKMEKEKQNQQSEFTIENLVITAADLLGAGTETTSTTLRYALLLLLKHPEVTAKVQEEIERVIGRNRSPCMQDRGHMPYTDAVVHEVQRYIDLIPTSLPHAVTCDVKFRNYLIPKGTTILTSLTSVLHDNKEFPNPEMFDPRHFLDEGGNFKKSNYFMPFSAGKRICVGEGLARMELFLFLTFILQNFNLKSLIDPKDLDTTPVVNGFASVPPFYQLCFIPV
T7 sequence (P08684 whole entry): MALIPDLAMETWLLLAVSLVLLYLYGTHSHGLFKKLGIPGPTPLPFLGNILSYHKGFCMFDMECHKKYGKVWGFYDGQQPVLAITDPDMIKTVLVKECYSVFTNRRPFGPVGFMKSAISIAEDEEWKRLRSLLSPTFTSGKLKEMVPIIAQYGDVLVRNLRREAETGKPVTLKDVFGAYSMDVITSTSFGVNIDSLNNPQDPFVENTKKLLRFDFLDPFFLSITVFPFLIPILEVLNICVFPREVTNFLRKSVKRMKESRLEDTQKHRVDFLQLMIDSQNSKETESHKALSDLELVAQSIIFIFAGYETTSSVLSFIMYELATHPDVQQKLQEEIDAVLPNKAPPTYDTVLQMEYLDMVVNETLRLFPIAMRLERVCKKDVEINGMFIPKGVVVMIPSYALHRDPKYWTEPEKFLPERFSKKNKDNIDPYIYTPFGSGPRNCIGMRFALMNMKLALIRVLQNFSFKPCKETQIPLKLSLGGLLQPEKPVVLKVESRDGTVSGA

In the case of `Cn1nnnc1Cn1nnc2c(N3CC[C@H](O)C3)nc(C(C)(C)C)nc21` [RG7774, (S)-1-(5-tert-butyl-3-[(1-methyl-1H-tetrazol-5-yl)methyl]-3H-[1,2,3]triazolo[4,5-d]pyrimidin-7-yl)pyrrolidin-3-ol], the “Mean ± SEM % inhibition of control, Human DAGL” value in the data set with Human DAGL amounted to 4.2 ± 52.2%. In addition, the results for the inhibition at 10 µM on Mouse MAGL and on Mouse CB1R were 2.7 ± 11.7% and 3.8%, respectively. Also, in the data set on Mouse DAGL, the “Mean ± SEM % inhibition of control, Mouse DAGL” value is recorded as 17.0 ± 17.7%. Also, the hepatocyte CLint at 1 µM is 1.7 µL/min/1e6 cells in “Hepatocyte clearance” (human, pooled cryopreserved human hepatocytes in suspension); 49.3 µL/min/1e6 cells in the data set “Hepatocyte clearance” (mouse); 37.9 µL/min/1e6 cells in “Hepatocyte clearance” (rat). Besides, the “GSH (human liver microsomes) adducts” value in data set [1] is “none detected”. Moreover, the IC50 (as a rule, the point on the concentration scale where inhibition reaches its midpoint) on CYP1A2 is > 50 µM; against CYP2C19, > 50 µM; on CYP2C8, > 50 µM; on CYP2C9, 29 µM; at CYP2D6, > 50 µM; on CYP3A4, > 50 µM. Further, at GAL2, the “% inhibition of control SB (n = 2)” value is “–4.0%”.
